{"source": "patent US12496329B2", "about": "“Methods of using and compositions including an incretin analog” (Eli Lilly and Company, priority 2021, dated 2025)", "assay": "MAD study in individuals with diabetes: plasma pharmacokinetics", "assay_type": "in vivo, human", "settings": "for AUC(0-inf) / Cmax / Tmax / half-life / CL/F: both sexes, human, plasma", "from_the_text": "Studies are designed to evaluate the safety, tolerability, PD and PK of the GGG tri-receptor agonist (SEQ ID NO:1) in individuals with diabetes. The MAD study is a randomized, investigator- and participant-blind, placebo-controlled, multiple-ascending dose, single-site study conducted in individuals with diabetes (i.e., females or males aged 20-70 years, inclusive, with T2DM for at least 3 months and HbA1c at lead-in and screening of ≥7.0% and ≤10.5% and treated with diet and exercise alone or a stable dose of metformin for at least 3 months prior to screening, with stable body weight for 3 months prior to randomization and with a BMI of 23-50 kg/m^2 at screening).\nDose escalation of the GGG tri-receptor agonist is assessed over 12 weeks in cohorts with a starting dose of 0.5 mg. One cohort of 13 individuals is administered 0.5 mg for 12 weeks. A second cohort of 13 individuals is administered 1.5 mg for 12 weeks. A third cohort of 15 individuals is administered 3.0 mg for 12 weeks. A fourth cohort of 15 individuals is administered 3.0 mg for 4 weeks and then administered 6.0 mg for 8 weeks. A fifth cohort of 16 individuals is administered 3.0 mg for 2 weeks, administered 6.0 mg for 2 weeks, administered 9.0 mg for 4 weeks, and then administered 12 mg for 4 weeks. Alternate dose increment steps may be introduced based on emerging safety and tolerability data from the preceding cohorts, and the dose increment steps can be reduced. As a non-limiting example, in Cohort 4, escalation from starting dose of 3 mg may occur via a step-through dose of 4.5 mg before attaining 6 mg, in Cohort 5, escalation from starting dose of 3 to 12 mg may occur via an additional step through dose level of 4.5 mg, prior to the planned doses 6 and 9 mg. In addition to these proposed alternate regimens in Cohort 4 and Cohort 5, planned dose for escalation between cohorts and within cohorts may be further reduced if warranted by safety or tolerability data.\nBlood samples are collected on Day 1 at pre-dose and at 12 hr, 24 hr, 48 hr (Day 2) and 72 hr post-dose, as well as at pre-dose on Days 7, 14 and 21, to determine plasma concentration of the GGG tri-receptor agonist. Blood samples also are collected on Day 29 at pre-dose and at 12 hr, 24 hr, 48 hr and 72 hr post-dose, as well as at pre-dose on Days 36, 43 and 50, to determine plasma concentration of the GGG tri-receptor agonist. Blood samples also are collected on Day 57 at pre-dose and at 12 hr, 24 hr, 48 hr and 72 hr post-dose, as well as at pre-dose on Days 64 and 71, to determine plasma concentration of the GGG tri-receptor agonist. Blood samples also are collected on Day 78 at pre-dose and at 12 hr, 24 hr, 48 hr and 72 hr post-dose, as well as at pre-dose on Day 85, to determine plasma concentration of the GGG tri-receptor agonist. Human plasma samples from individuals administered the GGG tri-receptor agonist are analyzed at Q2 Solutions (Ithaca, NY). Concentrations of the GGG tri-receptor agonist are assayed using a validated liquid chromatography high resolution mass spectrometry method, where the lower limits of quantification are 1 ng/ml or 3 ng/ml and the upper limit of quantification is 500 ng/mL.\nBlood samples are likewise collected at Weeks 14 and 16 for PK analysis. As above, plasma concentrations are used to compute PK parameters using standard non-compartmental methods in a validated software program (Phoenix WinNonlin Version 8.1).", "key": {"[1]": {"settings": "12 mg, 3.0, 6.0, 9.0, 12.0 mg QW, Day 1"}, "[2]": {"settings": "12 mg, 3.0, 6.0, 9.0, 12.0 mg QW, Day 29"}, "[3]": {"settings": "12 mg, 3.0, 6.0, 9.0, 12.0 mg QW, Day 57"}, "[4]": {"settings": "12 mg, 3.0, 6.0, 9.0, 12.0 mg QW, Day 78"}}, "note": "Like-named read-outs stand apart in the source and are kept apart here."}
{"molecule": "CC[C@H](C)[C@H](NC(=O)[C@H](Cc1ccccc1)NC(=O)[C@H](C)NC(=O)C(C)(C)NC(=O)[C@H](CCC(N)=O)NC(=O)[C@H](C)NC(=O)[C@H](CCCCNC(=O)COCCOCCNC(=O)CC[C@H](NC(=O)CCCCCCCCCCCCCCCCCCC(=O)O)C(=O)O)NC(=O)[C@H](CCCCN)NC(=O)[C@H](CC(=O)O)NC(=O)[C@H](CC(C)C)NC(=O)[C@](C)(CC(C)C)NC(=O)[C@@H](NC(=O)[C@H](CO)NC(=O)[C@H](Cc1ccc(O)cc1)NC(=O)[C@H](CC(=O)O)NC(=O)[C@H](CO)NC(=O)[C@@H](NC(=O)[C@H](Cc1ccccc1)NC(=O)[C@@H](NC(=O)CNC(=O)[C@H](CCC(N)=O)NC(=O)C(C)(C)NC(=O)[C@@H](N)Cc1ccc(O)cc1)[C@@H](C)O)[C@@H](C)O)[C@@H](C)CC)C(=O)N[C@@H](CCC(=O)O)C(=O)N[C@@H](Cc1ccc(O)cc1)C(=O)N[C@@H](CC(C)C)C(=O)N[C@@H](CC(C)C)C(=O)N[C@@H](CCC(=O)O)C(=O)NCC(=O)NCC(=O)N1CCC[C@H]1C(=O)N[C@@H](CO)C(=O)N[C@@H](CO)C(=O)NCC(=O)N[C@@H](C)C(=O)N1CCC[C@H]1C(=O)N1CCC[C@H]1C(=O)N1CCC[C@H]1C(=O)N[C@@H](CO)C(N)=O", "note": "[GGG tri-receptor agonist, Y-Aib-QGTFTSDYSI-αMeL-LDKK((2-[2-(2-amino-ethoxy)-ethoxy]-acetyl)-(γGlu)-CO-(CH2)18-CO2H)AQ-Aib-AFIEYLLEGGPSSGAPPPS-NH2]", "values": [{"measurement": "AUC (0-τ) and Cmax dose proportionality", "setting": "3.0, 6.0 and 12.0 mg, Week 12", "value": "increase in a dose-proportional manner"}, {"measurement": "AUC(0-inf)", "setting": "0.5 mg, 0.5 mg QW, Day 1", "value": 7180, "unit": "ng·h/mL"}, {"measurement": "Cmax", "setting": "0.5 mg, 0.5 mg QW, Day 1", "value": 54.1, "unit": "ng/mL"}, {"measurement": "Tmax", "setting": "0.5 mg, 0.5 mg QW, Day 1", "value": 48, "unit": "h"}, {"measurement": "AUC(0-inf)", "setting": "0.5 mg, 0.5 mg QW, Day 29", "value": 14400, "unit": "ng·h/mL"}, {"measurement": "Cmax", "setting": "0.5 mg, 0.5 mg QW, Day 29", "value": 118, "unit": "ng/mL"}, {"measurement": "Tmax", "setting": "0.5 mg, 0.5 mg QW, Day 29", "value": 23.8, "unit": "h"}, {"measurement": "AUC(0-inf)", "setting": "0.5 mg, 0.5 mg QW, Day 57", "value": 11800, "unit": "ng·h/mL"}, {"measurement": "Cmax", "setting": "0.5 mg, 0.5 mg QW, Day 57", "value": 86.8, "unit": "ng/mL"}, {"measurement": "Tmax", "setting": "0.5 mg, 0.5 mg QW, Day 57", "value": 36, "unit": "h"}, {"measurement": "AUC(0-inf)", "setting": "1.5 mg, 1.5 mg QW, Day 1", "value": 22600, "unit": "ng·h/mL"}, {"measurement": "Cmax", "setting": "1.5 mg, 1.5 mg QW, Day 1", "value": 228, "unit": "ng/mL"}, {"measurement": "Tmax", "setting": "1.5 mg, 1.5 mg QW, Day 1", "value": 24, "unit": "h"}, {"measurement": "AUC(0-inf)", "setting": "1.5 mg, 1.5 mg QW, Day 29", "value": 35900, "unit": "ng·h/mL"}, {"measurement": "Cmax", "setting": "1.5 mg, 1.5 mg QW, Day 29", "value": 252, "unit": "ng/mL"}, {"measurement": "Tmax", "setting": "1.5 mg, 1.5 mg QW, Day 29", "value": 24, "unit": "h"}, {"measurement": "AUC(0-inf)", "setting": "3 mg, 3.0 mg QW, Day 1", "value": 33800, "unit": "ng·h/mL"}, {"measurement": "Cmax", "setting": "3 mg, 3.0 mg QW, Day 1", "value": 290, "unit": "ng/mL"}, {"measurement": "Tmax", "setting": "3 mg, 3.0 mg QW, Day 1", "value": 23.8, "unit": "h"}, {"measurement": "AUC(0-inf)", "setting": "3 mg, 3.0 mg QW, Day 29", "value": 68100, "unit": "ng·h/mL"}, {"measurement": "Cmax", "setting": "3 mg, 3.0 mg QW, Day 29", "value": 531, "unit": "ng/mL"}, {"measurement": "Tmax", "setting": "3 mg, 3.0 mg QW, Day 29", "value": 12.2, "unit": "h"}, {"measurement": "AUC(0-inf)", "setting": "3 mg, 3.0 mg QW, Day 57", "value": 66300, "unit": "ng·h/mL"}, {"measurement": "Cmax", "setting": "3 mg, 3.0 mg QW, Day 57", "value": 562, "unit": "ng/mL"}, {"measurement": "Tmax", "setting": "3 mg, 3.0 mg QW, Day 57", "value": 24, "unit": "h"}, {"measurement": "AUC(0-inf)", "setting": "3 mg, 3.0 mg QW, Day 78", "value": 70100, "unit": "ng·h/mL"}, {"measurement": "Cmax", "setting": "3 mg, 3.0 mg QW, Day 78", "value": 571, "unit": "ng/mL"}, {"measurement": "Tmax", "setting": "3 mg, 3.0 mg QW, Day 78", "value": 12.2, "unit": "h"}, {"measurement": "half-life", "setting": "3 mg, 3.0 mg QW, Day 78, read-out: t½ (converted)", "value": 137, "unit": "h"}, {"measurement": "AUC(0-inf)", "setting": "6 mg, 3.0, 6.0 mg QW, Day 1", "value": 34500, "unit": "ng·h/mL"}, {"measurement": "Cmax", "setting": "6 mg, 3.0, 6.0 mg QW, Day 1", "value": 292, "unit": "ng/mL"}, {"measurement": "Tmax", "setting": "6 mg, 3.0, 6.0 mg QW, Day 1", "value": 24, "unit": "h"}, {"measurement": "AUC(0-inf)", "setting": "6 mg, 3.0, 6.0 mg QW, Day 29", "value": 86400, "unit": "ng·h/mL"}, {"measurement": "Cmax", "setting": "6 mg, 3.0, 6.0 mg QW, Day 29", "value": 711, "unit": "ng/mL"}, {"measurement": "Tmax", "setting": "6 mg, 3.0, 6.0 mg QW, Day 29", "value": 12.1, "unit": "h"}, {"measurement": "AUC(0-inf)", "setting": "6 mg, 3.0, 6.0 mg QW, Day 57", "value": 136000, "unit": "ng·h/mL"}, {"measurement": "Cmax", "setting": "6 mg, 3.0, 6.0 mg QW, Day 57", "value": 1170, "unit": "ng/mL"}, {"measurement": "Tmax", "setting": "6 mg, 3.0, 6.0 mg QW, Day 57", "value": 24, "unit": "h"}, {"measurement": "AUC(0-inf)", "setting": "6 mg, 3.0, 6.0 mg QW, Day 78", "value": 137000, "unit": "ng·h/mL"}, {"measurement": "Cmax", "setting": "6 mg, 3.0, 6.0 mg QW, Day 78", "value": 1060, "unit": "ng/mL"}, {"measurement": "Tmax", "setting": "6 mg, 3.0, 6.0 mg QW, Day 78", "value": 24, "unit": "h"}, {"measurement": "half-life", "setting": "6 mg, 3.0, 6.0 mg QW, Day 78, read-out: t½ (converted)", "value": 135, "unit": "h"}, {"measurement": "AUC(0-inf)", "setting": "[1]", "value": 31800, "unit": "ng·h/mL"}, {"measurement": "Cmax", "setting": "[1]", "value": 265, "unit": "ng/mL"}, {"measurement": "Tmax", "setting": "[1]", "value": 23.9, "unit": "h"}, {"measurement": "AUC(0-inf)", "setting": "[2]", "value": 150000, "unit": "ng·h/mL"}, {"measurement": "Cmax", "setting": "[2]", "value": 1320, "unit": "ng/mL"}, {"measurement": "Tmax", "setting": "[2]", "value": 23.8, "unit": "h"}, {"measurement": "AUC(0-inf)", "setting": "[3]", "value": 262000, "unit": "ng·h/mL"}, {"measurement": "Cmax", "setting": "[3]", "value": 2070, "unit": "ng/mL"}, {"measurement": "Tmax", "setting": "[3]", "value": 24, "unit": "h"}, {"measurement": "AUC(0-inf)", "setting": "[4]", "value": 293000, "unit": "ng·h/mL"}, {"measurement": "Cmax", "setting": "[4]", "value": 2410, "unit": "ng/mL"}, {"measurement": "Tmax", "setting": "[4]", "value": 23.9, "unit": "h"}, {"measurement": "half-life", "setting": "12 mg, 3.0, 6.0, 9.0, 12.0 mg QW, Day 78, read-out: t½ (converted)", "value": 143, "unit": "h"}, {"measurement": "Tmax", "setting": "MAD study, after dosing", "value": "12 to 72", "unit": "h"}, {"measurement": "half-life", "setting": "MAD study, read-out: mean half-life", "value": "~144", "unit": "h"}, {"measurement": "half-life", "setting": "subcutaneous, across all dose levels, read-out: geometric mean t½", "value": "135 to 143", "unit": "h"}, {"measurement": "CL/F", "setting": "3.0 mg QW, Day 78", "value": 0.713, "unit": "mL/min"}, {"measurement": "CL/F", "setting": "3.0, 6.0 mg QW, Day 78", "value": 0.728, "unit": "mL/min"}, {"measurement": "CL/F", "setting": "3.0, 6.0, 9.0, 12.0 mg QW, Day 78", "value": 0.683, "unit": "mL/min"}]}
